Measured values from US20110171663A1, “MICROTRENCH AND TUMOUR PROLIFERATION ASSAY” (University College Cardiff Consultants Ltd, priority 2008, published 2011).

Tested on: U-2 OS (ATCC HTB-96) human osteosarcoma cell line
Experiment: Timelapse imaging determination of sequential intermitotic times (IMT1, IMT2) in cell lineages
Type: cell-based
Settings: U-2 OS lineages from progenitors exposed to 10 μM topotecan for 1 h
Method: Human osteosarcoma cell line (U-2 OS (ATCC HTB-96)23) derived from a person were used. The cells were maintained at 37° C. and 5% CO2 using standard tissue culture techniques. Media used was McCoys 5A modified (Sigma) supplemented with 2 mM glutamine, 100 units/ml penicillin, 100 μg/ml streptomycin and 10% fetal calf serum. The cells were seeded onto tissue culture plastic, PDMS layer with and without PDMS microtrench arrays and placed in a six-well multi-well dish (10^4 cells per ml) and left to establish for 24 hours. Post-24 hours incubation the culture dish was then immediately placed onto a timelapse imaging instrument designed to capture transmission phase images from multi-well plates. An Axiovert 100 microscope (Carl Zeiss, Welwyn Garden City, UK) was fitted with an incubator for 37° C./5% CO2 maintenance (Solent Scientific, Portsmouth, UK), and an ORCA-ER CCD camera (Hamamatsu, Reading, UK). All images were collected with a x10 (PH1) apochromat objective lens providing a full view of each microtrench format. Sequences were captured sampling at 15 min, and for three fields per treatment regime (using AQM, Kinetic Imaging, Nottingham, UK). MetaMorph software (Molecular Devices, California) was used to view the stacked image in sequence as for each experiment the images were stacked and saved as *.stk format. […]

CC[C@@]1(O)C(=O)OCc2c1cc1n(c2=O)Cc2cc3c(CN(C)C)c(O)ccc3nc2-1 [topotecan]
IMT2 (av ± sd) (time between the division generating daughters and the division generating granddaughters): 22.9 ± 5.5
IMT1 (av ± sd) (time between the division generating the mother cell and the division generating two daughters): 24 ± 4.4
